Data taken from patent publication US11865098B1, “Methods and compositions for treating excessive sleepiness” (Axsome Malta Ltd., priority 2017, dated 2024).

System: patients with narcolepsy type 1 or type 2
Test: MWT, 12-week phase 3 study in narcolepsy
Format: in vivo, human
Conditions: mITT
Description: The MWT is an objective test used to measure how alert a subject is during the day. The test consists of four sleep trials with two hours in between the trials. The first trial is performed 1.5-3 hours after the subject's normal wake-up time. Sensors are placed on the head, face, and chin to detect when the subject is asleep and awake during the test. The subject sits quietly in bed with his or her back and head supported by a pillow and is asked to sit still and look straight ahead while trying to stay awake as long as possible. Each trial lasts 40 minutes or until the subject is asleep for 90 seconds. Between trials, the subject stays out of bed and occupies himself or herself to remain awake. Falling asleep in an average of less than eight minutes is considered abnormal. About 40-60% of subjects with normal sleep stay awake for the entire 40 minutes of all four trials.
The study was a 12-week, double-blind, randomized, placebo-controlled, parallel-group study. Patients were randomized (1:1:1:1) to receive placebo or APC 75, 150, or 300 mg; randomization was stratified by the presence or absence of cataplexy.
Key inclusion criteria included adults 18-75 years old, inclusive, with a diagnosis of narcolepsy type 1 or type 2 according to ICSD-3 (American Academy of Sleep Medicine. The International Classification of Sleep Disorders—Third Edition (ICSD-3). Darien, IL: American Academy of Sleep Medicine; 2014) or DSM-5 (American Psychiatric Association. Diagnostic and Statistical Manual of Mental Disorders Fifth Edition (DSM-5). Arlington, VA: American Psychiatric Association; 2013) criteria, baseline mean sleep latency <25 minutes on the first 4 trials of a 5-trial, 40-minute Maintenance of Wakefulness Test (MWT) and baseline Epworth Sleepiness Scale (ESS) (Johns, Sleep 14(6):540 (1991)) score ≥10, usual nightly total sleep time ≥6 hours, and body mass index between 18 and 45 kg/m^2.
Co-primary endpoints were change from baseline to week 12 in MWT mean sleep latency and ESS score. The key secondary endpoint was the percentage of patients who reported improvement on the Patient Global Impression of Change (PGI-C) (Guy, ECDEU assessment manual for psychopharmacology, revised. US Department of Health, Education, and Welfare publication (ADM 76-338). Rockville, MD: National Institute of Mental Health; 1976) at week 12. Other secondary and exploratory endpoints included changes on function and quality-of-life and changes in the number of cataplexy attacks per week. Safety evaluation included adverse events, laboratory tests, and vital signs.
Efficacy analyses were based on the modified intent-to-treat population (mITT), defined as all patients who were randomized, received at least 1 dose of study drug, and had baseline and at least 1 post-baseline evaluation of both MWT and ESS. MWT and ESS were analyzed using a mixed-effect repeated measures (MMRM) model. PGI-C was analyzed using a chi-square test. A fixed hierarchical testing procedure was used to correct for multiplicity, starting with the highest dose of APC for the co-primary endpoints and the key secondary endpoint; testing proceeded with each subsequent lower doses.

With `NC(=O)OC[C@H](N)Cc1ccccc1` [JZP-110, (R)-2-amino-3-phenylpropyl carbamate] the “MWT mean sleep latency increase from baseline >=5 minutes, % of subjects” value (75 mg, Week 1) was “(34.5) %”, the “MWT mean sleep latency increase from baseline >=5 minutes, n subjects” value (75 mg, Week 1) was 10 and the “MWT mean sleep latency increase from baseline >=10 minutes, % of subjects” value (75 mg, Week 1) was “(24.1) %”. For the same compound, the “MWT mean sleep latency increase from baseline >=10 minutes, n subjects” value (75 mg, Week 1) was 7, the “MWT mean sleep latency increase from baseline >=15 minutes, % of subjects” value (75 mg, Week 1) was “(17.2) %” and the “MWT mean sleep latency increase from baseline >=15 minutes, n subjects” value (75 mg, Week 1) was 5. The “MWT mean sleep latency increase from baseline >=20 minutes, % of subjects” value (75 mg, Week 1) was “(10.3) %”, the “MWT mean sleep latency increase from baseline >=20 minutes, n subjects” value (75 mg, Week 1) was 3 and the “MWT mean sleep latency increase from baseline >=25 minutes, % of subjects” value (75 mg, Week 1) was “(3.4) %”. The “MWT mean sleep latency increase from baseline >=25 minutes, n subjects” value (75 mg, Week 1) was 1, the “MWT mean sleep latency increase from baseline >=30 minutes, n subjects” value (75 mg, Week 1) was 0 and the “MWT mean sleep latency increase from baseline >=5 minutes, % of subjects” value (75 mg, Week 4) was “(42.0) %”. The “MWT mean sleep latency increase from baseline >=5 minutes, n subjects” value (75 mg, Week 4) was 21, the “MWT mean sleep latency increase from baseline >=10 minutes, % of subjects” value (75 mg, Week 4) was “(24.0) %” and the “MWT mean sleep latency increase from baseline >=10 minutes, n subjects” value (75 mg, Week 4) was 12. The “MWT mean sleep latency increase from baseline >=15 minutes, % of subjects” value (75 mg, Week 4) was “(12.0) %”, the “MWT mean sleep latency increase from baseline >=15 minutes, n subjects” value (75 mg, Week 4) was 6 and the “MWT mean sleep latency increase from baseline >=20 minutes, % of subjects” value (75 mg, Week 4) was “(6.0) %”. For the same compound, the “MWT mean sleep latency increase from baseline >=20 minutes, n subjects” value (75 mg, Week 4) was 3, the “MWT mean sleep latency increase from baseline >=25 minutes, n subjects” value (75 mg, Week 4) was 0 and the “MWT mean sleep latency increase from baseline >=30 minutes, n subjects” value (75 mg, Week 4) was 0. For the same compound, the “MWT mean sleep latency increase from baseline >=5 minutes, % of subjects” value (75 mg, Week 12) was “(41.3) %”, the “MWT mean sleep latency increase from baseline >=5 minutes, n subjects” value (75 mg, Week 12) was 19 and the “MWT mean sleep latency increase from baseline >=10 minutes, % of subjects” value (75 mg, Week 12) was “(19.6) %”. The “MWT mean sleep latency increase from baseline >=10 minutes, n subjects” value (75 mg, Week 12) was 9, the “MWT mean sleep latency increase from baseline >=15 minutes, % of subjects” value (75 mg, Week 12) was “(15.2) %” and the “MWT mean sleep latency increase from baseline >=15 minutes, n subjects” value (75 mg, Week 12) was 7. The “MWT mean sleep latency increase from baseline >=20 minutes, % of subjects” value (75 mg, Week 12) was “(8.7) %”, the “MWT mean sleep latency increase from baseline >=20 minutes, n subjects” value (75 mg, Week 12) was 4 and the “MWT mean sleep latency increase from baseline >=25 minutes, % of subjects” value (75 mg, Week 12) was “(2.2) %”. For the same compound, the “MWT mean sleep latency increase from baseline >=25 minutes, n subjects” value (75 mg, Week 12) was 1, the “MWT mean sleep latency increase from baseline >=30 minutes, n subjects” value (75 mg, Week 12) was 0 and the “MWT mean sleep latency increase from baseline >=5 minutes, % of subjects” value (150 mg, Week 1) was “(68.2) %”. The “MWT mean sleep latency increase from baseline >=5 minutes, n subjects” value (150 mg, Week 1) was 15, the “MWT mean sleep latency increase from baseline >=10 minutes, % of subjects” value (150 mg, Week 1) was “(50.0) %” and the “MWT mean sleep latency increase from baseline >=10 minutes, n subjects” value (150 mg, Week 1) was 11. The “MWT mean sleep latency increase from baseline >=15 minutes, % of subjects” value (150 mg, Week 1) was “(22.7) %”, the “MWT mean sleep latency increase from baseline >=15 minutes, n subjects” value (150 mg, Week 1) was 5 and the “MWT mean sleep latency increase from baseline >=20 minutes, % of subjects” value (150 mg, Week 1) was “(9.1) %”. For the same compound, the “MWT mean sleep latency increase from baseline >=20 minutes, n subjects” value (150 mg, Week 1) was 2, the “MWT mean sleep latency increase from baseline >=25 minutes, n subjects” value (150 mg, Week 1) was 0 and the “MWT mean sleep latency increase from baseline >=30 minutes, n subjects” value (150 mg, Week 1) was 0. For the same compound, the “MWT mean sleep latency increase from baseline >=5 minutes, % of subjects” value (150 mg, Week 4) was “(61.2) %”, the “MWT mean sleep latency increase from baseline >=5 minutes, n subjects” value (150 mg, Week 4) was 30 and the “MWT mean sleep latency increase from baseline >=10 minutes, % of subjects” value (150 mg, Week 4) was “(42.9) %”. For the same compound, the “MWT mean sleep latency increase from baseline >=10 minutes, n subjects” value (150 mg, Week 4) was 21, the “MWT mean sleep latency increase from baseline >=15 minutes, % of subjects” value (150 mg, Week 4) was “(30.6) %” and the “MWT mean sleep latency increase from baseline >=15 minutes, n subjects” value (150 mg, Week 4) was 15. For the same compound, the “MWT mean sleep latency increase from baseline >=20 minutes, % of subjects” value (150 mg, Week 4) was “(16.3) %”, the “MWT mean sleep latency increase from baseline >=20 minutes, n subjects” value (150 mg, Week 4) was 8 and the “MWT mean sleep latency increase from baseline >=25 minutes, % of subjects” value (150 mg, Week 4) was “(10.2) %”. For the same compound, the “MWT mean sleep latency increase from baseline >=25 minutes, n subjects” value (150 mg, Week 4) was 5, the “MWT mean sleep latency increase from baseline >=30 minutes, n subjects” value (150 mg, Week 4) was 0 and the “MWT mean sleep latency increase from baseline >=5 minutes, % of subjects” value (150 mg, Week 12) was “(58.0) %”. For the same compound, the “MWT mean sleep latency increase from baseline >=5 minutes, n subjects” value (150 mg, Week 12) was 29, the “MWT mean sleep latency increase from baseline >=10 minutes, % of subjects” value (150 mg, Week 12) was “(48.0) %” and the “MWT mean sleep latency increase from baseline >=10 minutes, n subjects” value (150 mg, Week 12) was 24. The “MWT mean sleep latency increase from baseline >=15 minutes, % of subjects” value (150 mg, Week 12) was “(36.0) %”, the “MWT mean sleep latency increase from baseline >=15 minutes, n subjects” value (150 mg, Week 12) was 18 and the “MWT mean sleep latency increase from baseline >=20 minutes, % of subjects” value (150 mg, Week 12) was “(18.0) %”. The “MWT mean sleep latency increase from baseline >=20 minutes, n subjects” value (150 mg, Week 12) was 9, the “MWT mean sleep latency increase from baseline >=25 minutes, % of subjects” value (150 mg, Week 12) was “(8.0) %” and the “MWT mean sleep latency increase from baseline >=25 minutes, n subjects” value (150 mg, Week 12) was 4. For the same compound, the “MWT mean sleep latency increase from baseline >=30 minutes, % of subjects” value (150 mg, Week 12) was “(2.0) %”, the “MWT mean sleep latency increase from baseline >=30 minutes, n subjects” value (150 mg, Week 12) was 1 and the “MWT mean sleep latency increase from baseline >=5 minutes, % of subjects” value (300 mg, Week 1) was “(64.0) %”. The “MWT mean sleep latency increase from baseline >=5 minutes, n subjects” value (300 mg, Week 1) was 16, the “MWT mean sleep latency increase from baseline >=10 minutes, % of subjects” value (300 mg, Week 1) was “(56.0) %” and the “MWT mean sleep latency increase from baseline >=10 minutes, n subjects” value (300 mg, Week 1) was 14. For the same compound, the “MWT mean sleep latency increase from baseline >=15 minutes, % of subjects” value (300 mg, Week 1) was “(44.0) %”.
